According to patent US12102630B2 (Synthon B.V., priority 2018, dated 2024):

Test: gel formation in contact with water / dissolution media
Type: physicochemical
Settings: solid forms
Source text: The marketed product comprises lenvatinib mesylate. It is known that the lenvatinib mesylate salt gelifies when in contact with dissolution media, this may cause a delay in its release. EP1797881 discloses a pharmaceutical composition that solved the above problems using an alkaline excipient with a pH of 8 a 5% w/w aqueous solution to reduce the degradation of the active substance and silicic acid to inhibit gelation. Sodium carbonates are described as suitable alkaline excipient.
Gelification limits the dissolution of API and can influence bioavailability of the drug.

lenvatinib besylate
tendency to form a gel when in contact with water: don't tend to form a gel
